Some test systems named below: UACC-62 melanoma; EKVX NSCLC; NCI/ADR-RES ovarian; SK-MEL-5 melanoma; RXF 393 renal; 786-0 renal; MDA-N; OVCAR-4 ovarian; A498 renal; DU-145 prostate; HT29 colon; HOP-92 NSCLC; OVCAR-5 ovarian; SK-MEL-28 melanoma; SNB-19 CNS; PC-3 prostate; NCI-H226 lung; HS 578T breast.
Holding throughout (assay): NCI-60 cell line screen, 48 h

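Cultured in 96-well plates, cells were exposed to test compound for 48 hours across five concentrations. GI50 is the concentration that inhibits growth by half. At the TGI there is no net growth.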

Consider `O=C(/C=C/c1cccc([N+](=O)[O-])c1)N1CCN(CCOC(c2ccccc2)c2ccccc2)CC1`, for which the TGI was over 100 µM in the assay on UACC-62 melanoma; over 100 µM in the assay on EKVX NSCLC; over 100 µM in the assay on NCI/ADR-RES ovarian; 28.2 µM in the assay with SK-MEL-5 melanoma; over 100 µM in the assay on RXF 393 renal; over 100 µM in the assay on 786-0 renal. Further, the TGI was over 100 µM with MDA-N; over 100 µM in the assay on OVCAR-4 ovarian; over 100 µM in the assay with A498 renal; over 100 µM with DU-145 prostate; 71.5 µM with HT29 colon; 55.7 µM in the assay on HOP-92 NSCLC. For the same compound, the TGI in the assay with OVCAR-5 ovarian is over 100 µM; with SK-MEL-28 melanoma, 64.2 µM; in the assay with SNB-19 CNS, over 100 µM.

As to `COc1cc2c(/C=C3/C(=O)Nc4ccc(O)cc43)c(Cl)n(Cc3ccccc3)c2cc1C`, the TGI was over 41.9 µM in the assay with UACC-62 melanoma; over 87.1 µM in the assay on PC-3 prostate; 15.5 µM with NCI-H226 lung; over 100 µM in the assay with EKVX NSCLC; 2.6 µM in the assay on NCI/ADR-RES ovarian; 3.36 µM in the assay on HS 578T breast. The TGI is 2.46 µM in the assay with SK-MEL-5 melanoma; 5.06 µM with RXF 393 renal; 3.28 µM in the assay with 786-0 renal; over 100 µM in the assay with OVCAR-4 ovarian; over 100 µM in the assay on A498 renal; 26 µM with DU-145 prostate. Besides, the TGI in the assay with HT29 colon is 3.96 µM; in the assay on HOP-92 NSCLC, over 78.3 µM; with OVCAR-5 ovarian, 14.5 µM; with SK-MEL-28 melanoma, 44.1 µM; with SNB-19 CNS, 18.3 µM. Further, the GI50 in the assay with A498 renal was 6.26 µM.

Turning to `O=C1c2ccccc2C(=O)C2NC(CCCCCSSCCCCCC3=NC4C(=O)c5ccccc5C(=O)C4N3)=NC12` (stereo not drawn), the TGI with PC-3 prostate, in the assay with NCI-H226 lung, in the assay on EKVX NSCLC, in the assay on NCI/ADR-RES ovarian, in the assay on HS 578T breast and with SK-MEL-5 melanoma was over 100 µM each time. Moreover, the TGI in the assay on RXF 393 renal, in the assay on 786-0 renal, in the assay on OVCAR-4 ovarian, in the assay with A498 renal, in the assay with DU-145 prostate and with HT29 colon was over 100 µM each time. The TGI with HOP-92 NSCLC was 69.2 µM; with OVCAR-5 ovarian, over 100 µM; in the assay with SK-MEL-28 melanoma it was over 100 µM.

For the compound `O=S(=O)(O)CCSSCCS(=O)(=O)O`, the TGI in the assay with UACC-62 melanoma, in the assay with PC-3 prostate, in the assay with NCI-H226 lung, in the assay on EKVX NSCLC, with NCI/ADR-RES ovarian and in the assay with RXF 393 renal was over 1000 µM in each case. The TGI in the assay with 786-0 renal, in the assay on MDA-N, in the assay on OVCAR-4 ovarian, in the assay on A498 renal, in the assay with DU-145 prostate and with HT29 colon was over 1000 µM each time. The TGI in the assay on HOP-92 NSCLC, with OVCAR-5 ovarian, with SK-MEL-28 melanoma and in the assay on SNB-19 CNS was over 1000 µM in each case.

`COc1cc(C2C3=C(COC3=O)OC(C)(C)Oc3cc4c(cc32)OCO4)cc(OC)c1O` (stereo not drawn): the TGI in the assay with PC-3 prostate was over 100 µM; in the assay on EKVX NSCLC, over 100 µM; with HS 578T breast it was over 100 µM; with SK-MEL-5 melanoma, 19.4 µM; in the assay on RXF 393 renal, 0.552 µM; with 786-0 renal, over 100 µM. Besides, the TGI in the assay on MDA-N is 0.423 µM; in the assay with OVCAR-4 ovarian it was over 100 µM; in the assay with A498 renal it was 68 µM; in the assay with DU-145 prostate it was over 100 µM; in the assay with HT29 colon, over 23.3 µM; in the assay with HOP-92 NSCLC, over 94.5 µM. The TGI in the assay with OVCAR-5 ovarian, in the assay with SK-MEL-28 melanoma and with SNB-19 CNS was over 100 µM in each case.

Take `CC(=O)OCC(OC(C)=O)C1C[C@H]2O[C@@H]3[C@H](C[C@H]2O1)O[C@@]1(C[C@@H]3C)C[C@H](C)[C@@H]2O[C@]3(C[C@@H]2O1)C[C@H]1O[C@H]2[C@H](C)[C@H]4OC(=O)C[C@H]5CC[C@@H]6OC7[C@H]8O[C@]9(CC[C@H]%10CC(=O)[C@H](CC[C@H]%11C[C@@H](C)C(=O)C(C[C@@H]4O[C@H]2C[C@H]1O3)O%11)O%10)CC8O[C@@H]7[C@@H](O9)[C@H]6O5` (stereo partly drawn): the TGI was over 1 µM in the assay with UACC-62 melanoma; over 1 µM in the assay with PC-3 prostate; 0.0731 µM in the assay on NCI-H226 lung; over 1 µM in the assay with EKVX NSCLC; over 0.566 µM in the assay on NCI/ADR-RES ovarian; 0.00604 µM in the assay on HS 578T breast. The TGI in the assay on SK-MEL-5 melanoma, in the assay on RXF 393 renal, in the assay on 786-0 renal, in the assay with OVCAR-4 ovarian, with A498 renal and in the assay with DU-145 prostate was over 1 µM each time. The TGI in the assay on HOP-92 NSCLC, in the assay on SK-MEL-28 melanoma and in the assay on SNB-19 CNS was over 1 µM in each case.

Take `NCc1ccc(-c2ccc(CN)s2)s1`: the TGI was over 100 µM in the assay with UACC-62 melanoma; over 100 µM in the assay with PC-3 prostate; over 100 µM in the assay with NCI-H226 lung; over 100 µM with EKVX NSCLC; 83.6 µM in the assay with NCI/ADR-RES ovarian; over 100 µM with SK-MEL-5 melanoma. The TGI was over 100 µM in the assay on RXF 393 renal; over 100 µM in the assay on 786-0 renal; over 100 µM with MDA-N; over 100 µM with OVCAR-4 ovarian; 23.1 µM in the assay on A498 renal; over 100 µM in the assay on DU-145 prostate. For the same compound, the TGI in the assay on HT29 colon, in the assay on HOP-92 NSCLC, with OVCAR-5 ovarian, with SK-MEL-28 melanoma and in the assay on SNB-19 CNS was over 100 µM in each case.

Turning to `C1=C(CC2=C[P+](c3ccccc3)(c3ccccc3)C=C(c3ccccc3)O2)OC(c2ccccc2)=C[P+]1(c1ccccc1)c1ccccc1`, the TGI is 1.4 µM in the assay with PC-3 prostate; 1.68 µM in the assay on EKVX NSCLC; 66.7 µM in the assay on NCI/ADR-RES ovarian; 0.964 µM in the assay on SK-MEL-5 melanoma; 2.07 µM with 786-0 renal; 1.22 µM in the assay on MDA-N. In addition, the TGI was determined as 2.09 µM in the assay on A498 renal; 1.73 µM in the assay with DU-145 prostate; 1.35 µM in the assay with HT29 colon; 2.39 µM in the assay on OVCAR-5 ovarian; 2.02 µM with SK-MEL-28 melanoma; 1.25 µM in the assay on SNB-19 CNS.

For the origin of these results see PubChem BioAssay (NCI).
